Earlier results on 8 compounds are cited in patent publication US20060286183A1, “Diet supplement for causing rapid weight loss, controlling appetite, managing stress, supporting relaxation, combating fatigue and supporting mental well-being” (priority 2005, published 2006).

The conditions of data set [1]: animals.
The conditions of data set [2]: humans.
The conditions of data set [3]: in vivo.
For data set [4], the target named is T1, catechol-O-methyl-transferase (COMT) (Homo sapiens, UniProt P21964).
T1 sequence (P21964 1-271): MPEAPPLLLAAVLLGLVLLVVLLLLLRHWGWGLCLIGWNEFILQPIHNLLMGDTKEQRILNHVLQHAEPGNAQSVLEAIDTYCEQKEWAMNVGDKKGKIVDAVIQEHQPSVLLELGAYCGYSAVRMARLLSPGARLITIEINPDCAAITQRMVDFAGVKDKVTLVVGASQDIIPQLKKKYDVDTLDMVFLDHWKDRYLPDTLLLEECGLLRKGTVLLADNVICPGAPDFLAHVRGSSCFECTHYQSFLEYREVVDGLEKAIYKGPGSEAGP

The conditions of data set [5]: lean and obese rats.
The target of a further data set is glutamate dehydrogenase (Homo sapiens, UniProt P00367).
The conditions of data set [6]: compared with vitamin C and E.
A further data set relates to ATP. To be noted: calorie restriction.
For data set [7] the following is noted: rats.
For data set [8] the following is noted: in vivo. This is another data set of the same source.
For data set [9] the following is noted: rats. The source holds these as a separate data set.
The conditions of data set [10]: during exercise, untrained men and women.
The conditions of data set [11]: humans. The source holds these as a separate data set.
Another data set addresses T2, ATP:citrate lyase (Homo sapiens, UniProt P53396).
T2 sequence (P53396 1-1101): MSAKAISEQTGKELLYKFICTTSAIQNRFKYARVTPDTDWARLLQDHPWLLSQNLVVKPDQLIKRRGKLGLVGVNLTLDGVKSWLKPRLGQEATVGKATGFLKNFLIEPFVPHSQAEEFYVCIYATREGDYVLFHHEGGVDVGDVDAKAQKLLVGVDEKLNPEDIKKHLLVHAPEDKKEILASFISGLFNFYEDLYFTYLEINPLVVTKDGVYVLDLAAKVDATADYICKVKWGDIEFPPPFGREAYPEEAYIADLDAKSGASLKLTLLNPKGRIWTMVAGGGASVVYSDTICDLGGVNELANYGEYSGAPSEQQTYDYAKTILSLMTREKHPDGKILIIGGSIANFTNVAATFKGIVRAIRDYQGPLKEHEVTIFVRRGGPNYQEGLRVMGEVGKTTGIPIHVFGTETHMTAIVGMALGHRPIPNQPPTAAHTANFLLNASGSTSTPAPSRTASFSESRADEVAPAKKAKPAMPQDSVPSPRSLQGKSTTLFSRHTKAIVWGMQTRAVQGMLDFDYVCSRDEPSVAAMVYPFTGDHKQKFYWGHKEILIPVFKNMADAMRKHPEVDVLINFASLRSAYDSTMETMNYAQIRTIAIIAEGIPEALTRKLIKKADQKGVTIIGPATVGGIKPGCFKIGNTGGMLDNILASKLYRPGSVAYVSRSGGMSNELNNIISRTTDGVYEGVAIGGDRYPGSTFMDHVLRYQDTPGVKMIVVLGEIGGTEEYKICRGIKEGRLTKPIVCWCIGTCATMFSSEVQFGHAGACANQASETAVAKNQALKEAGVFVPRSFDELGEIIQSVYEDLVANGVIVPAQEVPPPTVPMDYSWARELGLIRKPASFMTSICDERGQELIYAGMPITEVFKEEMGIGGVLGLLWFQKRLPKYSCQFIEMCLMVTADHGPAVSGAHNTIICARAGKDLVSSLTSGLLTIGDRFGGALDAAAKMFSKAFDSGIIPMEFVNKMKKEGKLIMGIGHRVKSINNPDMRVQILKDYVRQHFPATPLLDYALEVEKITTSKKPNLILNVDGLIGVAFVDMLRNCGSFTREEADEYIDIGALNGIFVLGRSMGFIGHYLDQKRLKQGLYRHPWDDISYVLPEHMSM

Experiment in data set [12]: not given
The source holds these as a separate data set.

The conditions of data set [13]: during fatigue.
The conditions of data set [14]: patients with mild to moderate psychosyndromes such as dementia.
For data set [15] the following is noted: healthy women, three-day supplementation.
In a further data set the test system is forebrain ischemia. To be noted: ischemia maintained for 10 minutes.
The conditions of data set [16]: elderly patients.
The conditions of data set [17]: stroke patients.
The conditions of data set [18]: obese rats.
For data set [19] the following is noted: rat, administration of NOPE.

Chain of glutamate dehydrogenase (P00367 54-558): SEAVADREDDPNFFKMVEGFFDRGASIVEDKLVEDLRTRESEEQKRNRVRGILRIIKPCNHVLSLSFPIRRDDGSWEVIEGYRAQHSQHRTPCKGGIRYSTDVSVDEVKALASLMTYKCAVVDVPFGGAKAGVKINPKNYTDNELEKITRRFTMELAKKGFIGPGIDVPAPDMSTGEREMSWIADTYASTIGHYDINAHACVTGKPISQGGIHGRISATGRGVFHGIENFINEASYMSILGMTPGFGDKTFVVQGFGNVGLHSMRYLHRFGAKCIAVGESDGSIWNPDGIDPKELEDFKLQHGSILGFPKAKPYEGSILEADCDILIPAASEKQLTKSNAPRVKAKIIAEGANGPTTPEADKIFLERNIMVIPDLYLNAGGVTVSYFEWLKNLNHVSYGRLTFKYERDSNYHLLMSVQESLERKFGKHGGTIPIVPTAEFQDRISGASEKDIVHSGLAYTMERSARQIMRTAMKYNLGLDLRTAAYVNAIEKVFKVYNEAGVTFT

On to `CC1=C(/C=C/C(C)=C/C=C/C(C)=C/C=C/C=C(C)/C=C/C=C(C)/C=C/C2=C(C)C(=O)[C@@H](O)CC2(C)C)C(C)(C)C[C@H](O)C1=O` [Astaxanthin], for which, in data set [1], the exercise-induced muscle damage result is “attenuate exercise-induced muscle damage”. Moreover, the 5-alpha-reductase inhibition entry in the data set on 5-alpha-reductase is “inhibiting 5-alpha-reductase”. Moreover, in [2], the safety result is “safe”.
With `[Cr]` [Chromium], in data set [3], the HDL cholesterol entry is on record as “increase HDL”. In addition, for the setting “clinical”, the lean mass entry was “increase lean mass”. Besides, the body fat entry (combined with exercise) is reported as “reduce body fat”.
For the compound `O=C(O[C@@H]1Cc2c(O)cc(O)cc2O[C@@H]1c1cc(O)c(O)c(O)c1)c1cc(O)c(O)c(O)c1` [EGCG, (−)-Epigallocatechin-3-gallate], the COMT inhibition result in [4] was “inhibitor”. Besides, in [5], the “food intake, body weight, cholesterol and triglycerides” value was “effective at reducing food intake, body weight, cholesterol and triglycerides”. The glutamate dehydrogenase inhibition entry on glutamate dehydrogenase is on record as “inhibitor of glutamate dehydrogenase”. Also, the antioxidant activity entry in [6] was “greater than many well known and established antioxidants”.
As for `C/C=C(\C)C(=O)O[C@@H]1C[C@H]2[C@@H](CC=C3C[C@@H](O[C@H]4C[C@H](OC)[C@H](O[C@H]5C[C@H](OC)[C@H](O[C@@H]6O[C@H](C)[C@@H](O)[C@H](OC)[C@H]6O)[C@@H](C)O5)[C@@H](C)O4)CC[C@@]32C)[C@@]2(O)CC[C@H](C(C)=O)[C@@]12C` [Example P57], the ATP entry in the data set with ATP is listed as “countered the reduction in ATP normally expected from calorie restriction”. In addition, the food intake result in [7] is “reduce food intake”.
Consider `O=C(O)CC(O)(C(=O)O)C(O)C(=O)O` (stereo not drawn) [HCA, Hydroxycitric acid], for which, in data set [8], the serotonin levels entry is given as “significantly increased”. Also, the “fatty acid synthesis and appetite” value in data set [9] is “inhibit fatty acid synthesis and repress appetite”. Also, the fat oxidation entry in data set [10] is “increase fat oxidation during exercise”. The caloric intake entry in data set [11] is reported as “reduce caloric intake”. In addition, the “ATP:citrate lyase inhibition” value on ATP:citrate lyase is reported as “competitive inhibitor”.
As for `N[C@@H](Cc1ccc(O)cc1)C(=O)O` [Tyrosine], the “mood and cognitive performance” value in data set [12] (periods of stress) was “improve mood and cognitive performance”. Moreover, the “blood pressure and cognition” value in data set [12] (under stress) is reported as “reduction in blood pressure in addition to cognitive improvement”. In addition, in [13], the mental performance entry is “improve”.
Consider `CCOC(=O)C1=C[C@]2(CC)CCCN3CCc4c(n1c1ccccc41)[C@@H]32` [Vinpocetine], for which the cognitive performance entry in [14] was “cognitive performance improved”. In data set [15], the memory result was “improvement in the memory”. Besides, in the data set with forebrain ischemia, the brain cell damage entry was “prevent brain cell damage”. The “improvement in chronic cerebral dysfunction” value in [16] is “significant improvement”. The cerebral blood flow entry in data set [17] was “increase cerebral blood flow”.
In the case of N-olyl-phosphatidyl ethanolamine [NOPE], in data set [18], the body weight entry was “lower body weight”. For the same compound, in [19], the appetite and weight result is “causes appetite suppression and subsequent weight loss”.
